pIC50: −log10 of the molar value.
target: T1, Furin [108-574] (Homo sapiens, UniProt P09958); assay: Furin Enzyme Assay
T1 construct: 108-574
Procedure: Reactions were performed in black 384-well polystyrene low volume plates (Greiner). […] Compounds of the invention were dissolved in DMSO (1.0 mM) and serially diluted 1 to 3 with DMSO through eleven dilutions to provide a final compound concentration range from 0.00017 to 10 μM. 0.05 μL of each concentration was transferred to the corresponding well of an assay plate, and then 5 μL of 40 pM furin enzyme in assay buffer (100 mM HEPES pH7.5, 1 mM CaCl2 and 0.005% Triton X-100) was added using a Multidrop Combi (Thermo) to the compound plates, and mixed by inversion. […] The plates were centrifuged at 500×g for 1 minute and incubated at room temperature for two hours. Enzyme inhibition is then quantified using an Envision instrument (PerkinElmer).

T1 sequence (P09958 108-574): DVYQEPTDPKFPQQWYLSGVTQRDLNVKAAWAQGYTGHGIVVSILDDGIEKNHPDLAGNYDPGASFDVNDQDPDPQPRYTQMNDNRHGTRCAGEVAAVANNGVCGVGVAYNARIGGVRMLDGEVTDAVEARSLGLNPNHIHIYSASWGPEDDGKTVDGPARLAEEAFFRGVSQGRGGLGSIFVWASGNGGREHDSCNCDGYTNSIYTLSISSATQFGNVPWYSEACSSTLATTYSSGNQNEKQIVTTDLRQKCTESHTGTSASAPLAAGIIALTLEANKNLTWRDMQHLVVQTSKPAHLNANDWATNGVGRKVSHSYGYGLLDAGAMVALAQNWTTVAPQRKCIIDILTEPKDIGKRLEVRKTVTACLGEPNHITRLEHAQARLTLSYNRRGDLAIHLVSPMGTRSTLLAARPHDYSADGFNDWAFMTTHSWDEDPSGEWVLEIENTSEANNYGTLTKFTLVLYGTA

| Structure (SMILES) | pIC50 |
| --- | --- |
| CN1CCC(c2ncc(Oc3cc(CN4CCC(CC(=O)O)CC4)cc(-c4cc(Cl)cc(Cl)c4)n3)cn2)CC(F)C1 (configuration not stated) [US11773078, Example 147] | 9.20 |
| CC(=O)NCC1CCN(Cc2cc(Cc3cnc(N4CC5CCC(C4)N5C)nc3)nc(-c3cc(Cl)cc(Cl)c3)c2)CC1 [US11773078, Example 71] | 9.70 |
| COC(=O)NC(=O)CCN1CCN(c2ncc(Cc3cc(CN4CCC(CNC(C)=O)CC4)cc(-c4cc(Cl)cc(Cl)c4)c3)cn2)CC1 [US11773078, Example 172] | 9.60 |
| CC(=O)NCC1CCN(Cc2cc(Oc3cnc(N4CCN(C(=O)CCN)CC4)nc3)cc(-c3cc(Cl)cc(Cl)c3)c2)CC1 [US11773078, Example 170] | 9.10 |
| CN1C2CC1CN(c1ncc(Oc3cc(CN4CCC(CC(=O)O)CC4)cc(-c4cc(Cl)cc(Cl)c4)n3)cn1)C2 [US11773078, Example 228] | 8.60 |
| CC(=O)NCC1CCN(Cc2cc(Oc3cnc(N4CCN(CCCO)CC4)nc3)cc(-c3cc(Cl)cc(Cl)c3)c2)CC1 [US11773078, Example 113] | > 9.80 |
| CC(C)(O)CCC1CCN(Cc2cc(Oc3ccc(N4CCNCC4)nc3)nc(-c3cc(Cl)cc(Cl)c3)c2)CC1 [US11773078, Example 120] | 8.70 |
| COC(=O)NCC1CCN(Cc2cc(Oc3cnc(N4CC5CCC(C4)N5CCC(=O)O)nc3)nc(-c3cc(Cl)cc(Cl)c3)c2)CC1 [US11773078, Example 56] | 10.49 |
| O=C(O)CCC1CCN(Cc2cc(Oc3cnc(N4CCN(CCO)CC4)nc3)cc(-c3cc(Cl)cc(Cl)c3)c2)CC1 [US11773078, Example 114] | > 9.80 |
| CNC(=O)NCC1CCN(Cc2cc(Oc3cnc(N4CCN(C)CC4)nc3)nc(-c3cc(Cl)cc(Cl)c3)c2)CC1 [US11773078, Example 70] | 10.49 |
| CNC(=O)NCC1CCN(Cc2cc(Oc3cnc(N4CCN(CCC(C)[S+](C)[O-])CC4)nc3)nc(-c3cc(Cl)cc(Cl)c3)c2)CC1 (configuration not stated) [US11773078, Example 17] | 10.49 |
| CC(=O)NCC1CCN(Cc2cc(Cc3ccc(N4CCN(CCC(=O)O)CC4)nn3)nc(-c3cc(Cl)cc(Cl)c3)c2)CC1 [US11773078, Example 169] | 10.49 |
| CNC(=O)OCC1CCN(Cc2cc(Oc3ccc(N4CCN(C)CC4)nc3)nc(-c3cc(Cl)cc(Cl)c3)c2)CC1 [US11773078, Example 67] | 8.80 |
| CC(O)CCN1CCC(c2cnc(Cc3cc(CN4CCC(CC(N)=O)CC4)cc(-c4cc(Cl)cc(Cl)c4)n3)cn2)CC1 (configuration not stated) [US11773078, Example 164] | 8.40 |

The next lines start with the values.

| pIC50 | Structure (SMILES) |
| --- | --- |
| 9.70 | C[C@H](CC1CCN(Cc2cc(Oc3ccc(N4CCN(C)CC4)nn3)nc(-c3cc(Cl)cc(Cl)c3)c2)CC1)C(=O)O [US11773078, Example 364] |
| 10.49 | NS(=O)(=O)CCC1CCN(Cc2cc(Oc3ccc(N4CCN(CCC(=O)O)CC4)nc3)nc(-c3cc(Cl)cc(Cl)c3)c2)CC1 [US11773078, Example 277] |
| 10.49 | CN1CCCN(c2ccc(Oc3cc(CN4CC[C@@H]5[C@H](CC4)[C@H]5C(=O)O)cc(-c4cc(Cl)cc(Cl)c4)n3)nn2)CC1 [US11773078, Example 362] |
| 8.70 | CC(=O)NCC1CCN(Cc2cc(Oc3cnc(N4CCN(CCS(=O)(=O)O)CC4)nc3)nc(-c3cc(Cl)cc(Cl)c3)c2)CC1 [US11773078, Example 287] |
| 10.89 | CNC(=O)OCC1CCN(Cc2cc(Oc3cnc(N4CCN(C(C)CCC(=O)O)CC4)nc3)nc(-c3cc(Cl)cc(Cl)c3)c2)CC1 (configuration not stated) [US11773078, Example 208] |
| 10.20 | CNC(=O)NCC1CCN(Cc2cc(Cc3cnc(N4CCN(CCC(C)S(C)(=O)=O)CC4)nc3)nc(-c3cc(Cl)cc(Cl)c3)c2)CC1 (configuration not stated) [US11773078, Example 220] |
| 9.60 | CC(=O)NCC1CCN(Cc2cc(Oc3ccc(N4C[C@H](CN)[C@@H](O)C4)nc3)nc(-c3cc(Cl)cc(Cl)c3)c2)CC1 [US11773078, Example 184] |
| 9.70 | CNC(=O)NCC1CCN(Cc2cc(Oc3ccc(N4CCN(CCCS(N)(=O)=O)CC4)nc3)nc(-c3cc(Cl)cc(Cl)c3)c2)CC1 [US11773078, Example 260] |
| > 9.80 | CC(=O)NCC1CCN(Cc2cc(Oc3ccc(N4CCN(CCCS(C)(=O)=O)CC4)nc3)nc(-c3cc(Cl)cc(Cl)c3)c2)CC1 [US11773078, Example 251] |
| 9.10 | CN1CCN(c2ncc(Oc3cc(CN4CC[C@@H]5[C@H](CC4)[C@H]5C(=O)O)cc(-c4cc(Cl)cc(Cl)c4)n3)cn2)CC1 [US11773078, Example 321] |
| 9.40 | CC(=O)NCC1CCN(Cc2cc(Cc3cnc(N4CCN(C(C)CCC(=O)O)CC4)nc3)nc(-c3cc(Cl)cc(Cl)c3)c2)CC1 (configuration not stated) [US11773078, Example 215] |
| 9.40 | CC(=O)NCC1CCN(Cc2cc(Oc3cnc(N4CCN(CCC5(C(=O)O)CC5)CC4)nc3)cc(-c3cc(Cl)cc(Cl)c3)c2)CC1 [US11773078, Example 173] |
| 8.90 | O=C(O)CC1CCN(Cc2cc(Oc3ccc(C4C[C@@H]5C[C@H]4CN5)nc3)nc(-c3cc(Cl)cc(Cl)c3)c2)CC1 (some centres not stated) [US11773078, Example 187] |
| 9.70 | CC(=O)NCC1CCN(Cc2cc(Oc3cnc(C4CCN(C(C)CC(=O)O)CC4)nc3)nc(-c3cc(Cl)cc(Cl)c3)c2)CC1 (configuration not stated) [US11773078, Example 282] |
| 10.49 | CNC(=O)OCC1CCN(Cc2cc(Oc3cnc(N4CCN(CCC(=O)O)CC4)nc3)nc(-c3cc(Cl)cc(Cl)c3)c2)CC1 [US11773078, Example 248] |
| 10.60 | CC(=O)NCC1CCN(Cc2cc(Oc3ccc(N4C[C@H](C)N(CCS(C)(=O)=O)C[C@@H]4C)nc3)nc(-c3cc(Cl)cc(Cl)c3)c2)CC1 [US11773078, Example 183] |
| 8.70 | CN1C2CCC1CN(c1ncc(Cc3nc(-c4cc(Cl)cc(Cl)c4)cc(CN4CCC(CC(=O)O)CC4)c3F)cn1)C2 [US11773078, Example 378] |
| > 9.80 | CNC(=O)NCC1CCN(Cc2cc(Oc3cnc(N4CCN(CCO)CC4)nc3)cc(-c3cc(Cl)cc(Cl)c3)c2)CC1 [US11773078, Example 313] |
